Experimental data as given in paper PMC3388095, “Fluorophore Labeled Kinase Detects Ligands That Bind within the MAPK Insert of p38α Kinase” (PLoS ONE, 2012).

Assays:
Experiment in all cases: Kinase selectivity profile, 33P-ATP filter-binding assay
Format in all cases: biochemical
PKA = PKA (Homo sapiens, UniProt P17612)
Description: (§1) Figure 5 Kinase selectivity profile of 1b. Compound 1b was profiled against a selected panel of 95 different kinases at a concentration of 10 µM employing a radioactive (^33P-ATP) filter-binding assay (National Centre for Protein Kinase Profiling, Dundee). The numbers represent the remaining kinase activity in %. […] TEXT PRINTED IN THE PICTURE: no label printed: Aurora B: 53; MNK2: 67; MINK1: 69; HER4: 71; MKK1: 75; PKBβ: 75; PHK: 76; PIM2: 76; PIM3: 77; CHK2: 78; PKD1: 79; TBK1: 79; PAK4: 80; Lck: 80; GSK3β: 80; IGF-1R: 81; p38δ MAPK: 81; PIM1: 82; SRPK1: 83; SmMLCK: 83; MAPKAP-K3: 84; EPH A2: 85; MELK: 85; CK2: 85; CK1: 86; CAMK1: 86; PLK1: 87; MST2: 87; IR-HIS: 87; BTK: 87; HIPK1: 87; p38α MAPK: 88; DYRK2: 88; JNK3: 88; PAK5: 88; IKKε: 89; p38β MAPK: 89; NUAK1: 90; PAK2: 90; MNK1: 91; ERK8: 91; GCK: 91; PRAK: 91; MLK1: 92; SGK1: 92; PAK6: 92; TTK: 92; BRSK2: 92; MARK4: 93; CHK1: 93; RIPK2: 94; CDK2-Cyclin A: 94; JNK1: 94; AMPK: 94; VEG-FR: 95; DYRK1A: 95; CAMKKβ: 95; PKCα: 96; S6K1: 96; MSK1: 96; PKCz: 96; YES1: 96; RSK1: 97; IRAK4: 97; DYRK3: 97; IKKβ: 97; ERK2: 98; MLK3: 98; RSK2: 98; LKB1: 98; MAPKAP-K2: 98; ERK1: 99; FGF-R1: 99; SYK: 99; MST4: 99; MARK3: 99; MARK2: 100; PDK1: 100; JNK2: 101; HIPK2: 101; BRSK1: 102; EF2K: 102; PRK2: 103; Aurora A: 104; IRR: 104; CSK: 104; PKA: 104; NEK6: 105; p38γ MAPK: 105; Src: 107; PKBα: 109; ROCK 2: 109; EPH-B3: 112; HIPK3: 115; NEK2α: 119 DOUBTS OF THE COPYIST ABOUT THIS PICTURE: The picture prints no compound label and no measure or unit for the numbers; only the colour scale 'Inhibition weak/strong' is printed. / PKCz: the last letter may be z or ζ / NEK2α: the last letter may be a or α / IKKε: the last letter may be ε or e

p38γ MAPK = p38γ MAPK (Homo sapiens, UniProt P53778)
Description: as §1

NEK6 = NEK6 (Homo sapiens, UniProt Q9HC98)
Description: as §1

DYRK2 = DYRK2 (Homo sapiens, UniProt Q92630)
Description: as §1

ERK1 = ERK1 (Homo sapiens, UniProt P27361)
Description: as §1

MLK3 = MLK3 (Homo sapiens, UniProt Q16584)
Description: as §1

PAK6 = PAK6 (Homo sapiens, UniProt Q9NQU5)
Description: as §1

Src = Src (Homo sapiens, UniProt P12931)
Description: as §1

CAMK1 = CAMK1 (Homo sapiens, UniProt Q14012)
Description: as §1

PKBα = PKBα (Homo sapiens, UniProt P31749)
Description: as §1

CHK2 = CHK2 (Homo sapiens, UniProt O96017)
Description: as §1

PKCα = PKCα (Homo sapiens, UniProt P17252)
Description: as §1

JNK2 = JNK2 (Homo sapiens, UniProt P45984)
Description: as §1

SmMLCK = SmMLCK (Homo sapiens, UniProt Q15746)
Description: as §1

DYRK1A = DYRK1A (Homo sapiens, UniProt Q13627)
Description: as §1

IKKε = IKKε (Homo sapiens, UniProt Q14164)
Description: as §1

p38δ MAPK = p38δ MAPK (Homo sapiens, UniProt O15264)
Description: as §1

DYRK3 = DYRK3 (Homo sapiens, UniProt O43781)
Description: as §1

LKB1 = LKB1 (Homo sapiens, UniProt Q15831)
Description: as §1

CSK = CSK (Homo sapiens, UniProt P41240)
Description: as §1

PIM1 = PIM1 (Homo sapiens, UniProt P11309)
Description: as §1

p38β MAPK = p38β MAPK (Homo sapiens, UniProt Q15759)
Description: as §1

PIM2 = PIM2 (Homo sapiens, UniProt Q9P1W9)
Description: as §1

TTK = TTK (Homo sapiens, UniProt P33981)
Description: as §1

CK1 = CK1 (Homo sapiens, UniProt P48730)
Description: as §1

TBK1 = TBK1 (Homo sapiens, UniProt Q9UHD2)
Description: as §1

SRPK1 = SRPK1 (Homo sapiens, UniProt Q96SB4)
Description: as §1

CK1, sequence (P48730 whole entry): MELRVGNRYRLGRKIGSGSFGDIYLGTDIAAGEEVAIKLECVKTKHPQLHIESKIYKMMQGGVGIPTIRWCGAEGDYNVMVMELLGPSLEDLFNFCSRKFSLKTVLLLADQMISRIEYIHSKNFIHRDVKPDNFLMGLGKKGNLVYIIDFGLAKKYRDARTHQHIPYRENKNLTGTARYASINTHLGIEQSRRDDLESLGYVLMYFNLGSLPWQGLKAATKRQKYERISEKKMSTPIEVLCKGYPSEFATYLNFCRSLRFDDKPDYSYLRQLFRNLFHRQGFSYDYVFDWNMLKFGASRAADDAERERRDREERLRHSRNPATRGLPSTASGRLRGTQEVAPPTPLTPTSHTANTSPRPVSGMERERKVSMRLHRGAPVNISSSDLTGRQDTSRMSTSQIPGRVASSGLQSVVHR
DYRK2, sequence (Q92630 whole entry): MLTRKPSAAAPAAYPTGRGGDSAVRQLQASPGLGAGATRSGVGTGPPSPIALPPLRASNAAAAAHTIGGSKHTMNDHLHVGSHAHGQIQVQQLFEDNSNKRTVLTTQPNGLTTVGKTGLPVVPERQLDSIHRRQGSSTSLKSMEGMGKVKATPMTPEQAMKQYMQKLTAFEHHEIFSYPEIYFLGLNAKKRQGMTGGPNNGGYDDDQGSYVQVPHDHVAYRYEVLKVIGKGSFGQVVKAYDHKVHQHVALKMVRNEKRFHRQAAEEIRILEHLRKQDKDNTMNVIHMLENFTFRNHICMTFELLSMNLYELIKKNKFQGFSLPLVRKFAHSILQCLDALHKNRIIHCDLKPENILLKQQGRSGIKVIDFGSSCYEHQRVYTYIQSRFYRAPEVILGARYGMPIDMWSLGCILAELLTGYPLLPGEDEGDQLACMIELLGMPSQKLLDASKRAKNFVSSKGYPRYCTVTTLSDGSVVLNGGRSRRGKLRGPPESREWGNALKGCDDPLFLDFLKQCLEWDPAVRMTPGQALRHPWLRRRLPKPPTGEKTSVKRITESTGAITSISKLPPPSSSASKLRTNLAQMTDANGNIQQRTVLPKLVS
PKBα, sequence (P31749 whole entry): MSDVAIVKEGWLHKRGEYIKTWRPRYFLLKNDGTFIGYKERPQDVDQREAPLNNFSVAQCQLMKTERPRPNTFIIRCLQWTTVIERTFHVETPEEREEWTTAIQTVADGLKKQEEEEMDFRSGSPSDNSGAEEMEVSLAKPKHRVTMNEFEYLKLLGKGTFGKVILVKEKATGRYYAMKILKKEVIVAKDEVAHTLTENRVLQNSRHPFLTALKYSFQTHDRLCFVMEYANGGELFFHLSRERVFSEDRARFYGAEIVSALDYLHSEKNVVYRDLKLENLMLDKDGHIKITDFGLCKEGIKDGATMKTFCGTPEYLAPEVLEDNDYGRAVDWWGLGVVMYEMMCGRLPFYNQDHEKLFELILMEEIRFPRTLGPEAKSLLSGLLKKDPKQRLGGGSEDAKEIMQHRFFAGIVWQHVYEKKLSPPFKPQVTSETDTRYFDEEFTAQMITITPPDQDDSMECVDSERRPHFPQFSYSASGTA
SmMLCK, sequence (Q15746 923-1914): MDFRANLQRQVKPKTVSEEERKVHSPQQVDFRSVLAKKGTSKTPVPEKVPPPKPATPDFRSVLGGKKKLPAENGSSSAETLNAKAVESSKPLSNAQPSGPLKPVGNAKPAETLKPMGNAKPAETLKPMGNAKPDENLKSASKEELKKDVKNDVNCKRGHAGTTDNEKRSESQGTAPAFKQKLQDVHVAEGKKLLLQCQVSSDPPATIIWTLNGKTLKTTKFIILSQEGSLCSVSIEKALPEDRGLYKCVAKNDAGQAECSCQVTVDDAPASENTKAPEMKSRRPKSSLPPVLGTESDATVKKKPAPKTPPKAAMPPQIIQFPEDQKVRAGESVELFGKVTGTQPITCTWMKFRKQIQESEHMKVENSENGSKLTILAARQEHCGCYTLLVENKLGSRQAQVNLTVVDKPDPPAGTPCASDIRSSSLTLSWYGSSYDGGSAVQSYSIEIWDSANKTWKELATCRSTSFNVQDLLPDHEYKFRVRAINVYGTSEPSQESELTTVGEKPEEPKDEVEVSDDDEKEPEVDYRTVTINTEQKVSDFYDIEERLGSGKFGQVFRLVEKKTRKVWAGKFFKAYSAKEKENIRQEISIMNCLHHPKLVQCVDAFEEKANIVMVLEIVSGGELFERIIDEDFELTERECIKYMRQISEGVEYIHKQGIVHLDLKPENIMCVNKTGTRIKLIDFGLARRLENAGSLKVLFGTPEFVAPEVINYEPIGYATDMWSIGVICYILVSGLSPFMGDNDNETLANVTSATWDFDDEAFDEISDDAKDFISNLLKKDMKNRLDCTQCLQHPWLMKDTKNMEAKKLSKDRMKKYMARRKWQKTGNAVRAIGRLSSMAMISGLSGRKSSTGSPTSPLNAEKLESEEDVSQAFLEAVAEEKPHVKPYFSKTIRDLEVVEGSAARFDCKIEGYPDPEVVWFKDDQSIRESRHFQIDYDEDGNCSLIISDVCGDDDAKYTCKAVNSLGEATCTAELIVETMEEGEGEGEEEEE
TBK1, sequence (Q9UHD2 whole entry): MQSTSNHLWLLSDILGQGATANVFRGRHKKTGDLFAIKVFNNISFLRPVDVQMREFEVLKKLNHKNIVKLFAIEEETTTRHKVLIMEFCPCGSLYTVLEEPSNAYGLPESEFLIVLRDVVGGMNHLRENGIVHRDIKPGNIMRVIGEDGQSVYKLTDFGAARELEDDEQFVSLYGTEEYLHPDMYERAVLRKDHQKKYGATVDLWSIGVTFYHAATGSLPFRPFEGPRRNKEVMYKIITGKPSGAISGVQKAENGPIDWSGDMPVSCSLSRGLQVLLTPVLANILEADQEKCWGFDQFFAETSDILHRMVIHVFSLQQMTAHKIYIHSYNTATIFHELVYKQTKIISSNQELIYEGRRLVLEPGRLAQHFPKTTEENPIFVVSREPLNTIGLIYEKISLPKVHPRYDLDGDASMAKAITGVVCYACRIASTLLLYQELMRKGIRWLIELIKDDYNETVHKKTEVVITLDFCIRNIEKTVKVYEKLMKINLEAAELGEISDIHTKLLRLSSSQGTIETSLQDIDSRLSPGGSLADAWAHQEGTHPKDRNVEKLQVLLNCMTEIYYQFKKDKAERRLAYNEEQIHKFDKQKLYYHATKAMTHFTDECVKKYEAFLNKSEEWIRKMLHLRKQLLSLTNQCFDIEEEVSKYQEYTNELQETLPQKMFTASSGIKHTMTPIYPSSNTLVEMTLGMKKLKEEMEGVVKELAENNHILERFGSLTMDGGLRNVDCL
PIM2, sequence (Q9P1W9 whole entry): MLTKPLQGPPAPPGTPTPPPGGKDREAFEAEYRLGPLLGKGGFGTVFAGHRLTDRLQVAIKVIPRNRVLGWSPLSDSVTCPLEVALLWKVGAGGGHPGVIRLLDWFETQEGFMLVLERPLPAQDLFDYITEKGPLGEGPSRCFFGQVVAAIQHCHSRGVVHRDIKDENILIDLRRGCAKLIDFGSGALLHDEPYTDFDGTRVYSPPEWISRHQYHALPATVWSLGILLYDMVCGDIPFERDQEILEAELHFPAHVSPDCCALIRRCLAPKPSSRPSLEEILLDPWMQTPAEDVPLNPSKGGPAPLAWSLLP
JNK2, sequence (P45984 whole entry): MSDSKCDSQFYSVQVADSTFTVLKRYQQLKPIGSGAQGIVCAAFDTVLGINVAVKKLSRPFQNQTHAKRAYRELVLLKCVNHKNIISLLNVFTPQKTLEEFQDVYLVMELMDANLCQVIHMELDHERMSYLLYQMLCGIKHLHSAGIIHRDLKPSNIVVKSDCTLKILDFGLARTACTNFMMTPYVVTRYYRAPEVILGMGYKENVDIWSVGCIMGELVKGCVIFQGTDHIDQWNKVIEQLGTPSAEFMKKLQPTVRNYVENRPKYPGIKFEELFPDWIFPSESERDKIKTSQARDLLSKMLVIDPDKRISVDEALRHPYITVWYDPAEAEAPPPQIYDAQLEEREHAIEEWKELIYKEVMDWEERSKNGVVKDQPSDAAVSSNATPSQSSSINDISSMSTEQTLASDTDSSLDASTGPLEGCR
ERK1, sequence (P27361 whole entry): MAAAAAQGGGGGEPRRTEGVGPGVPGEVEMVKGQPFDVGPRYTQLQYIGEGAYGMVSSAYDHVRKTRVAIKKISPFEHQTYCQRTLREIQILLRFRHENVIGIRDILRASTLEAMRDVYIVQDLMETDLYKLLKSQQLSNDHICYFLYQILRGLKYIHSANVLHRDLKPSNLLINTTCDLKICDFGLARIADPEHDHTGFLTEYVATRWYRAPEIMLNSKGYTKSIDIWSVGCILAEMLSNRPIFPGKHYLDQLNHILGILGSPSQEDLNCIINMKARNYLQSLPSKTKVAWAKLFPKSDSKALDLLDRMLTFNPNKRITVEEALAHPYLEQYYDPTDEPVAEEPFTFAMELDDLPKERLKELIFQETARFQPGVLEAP
SRPK1, sequence (Q96SB4 whole entry): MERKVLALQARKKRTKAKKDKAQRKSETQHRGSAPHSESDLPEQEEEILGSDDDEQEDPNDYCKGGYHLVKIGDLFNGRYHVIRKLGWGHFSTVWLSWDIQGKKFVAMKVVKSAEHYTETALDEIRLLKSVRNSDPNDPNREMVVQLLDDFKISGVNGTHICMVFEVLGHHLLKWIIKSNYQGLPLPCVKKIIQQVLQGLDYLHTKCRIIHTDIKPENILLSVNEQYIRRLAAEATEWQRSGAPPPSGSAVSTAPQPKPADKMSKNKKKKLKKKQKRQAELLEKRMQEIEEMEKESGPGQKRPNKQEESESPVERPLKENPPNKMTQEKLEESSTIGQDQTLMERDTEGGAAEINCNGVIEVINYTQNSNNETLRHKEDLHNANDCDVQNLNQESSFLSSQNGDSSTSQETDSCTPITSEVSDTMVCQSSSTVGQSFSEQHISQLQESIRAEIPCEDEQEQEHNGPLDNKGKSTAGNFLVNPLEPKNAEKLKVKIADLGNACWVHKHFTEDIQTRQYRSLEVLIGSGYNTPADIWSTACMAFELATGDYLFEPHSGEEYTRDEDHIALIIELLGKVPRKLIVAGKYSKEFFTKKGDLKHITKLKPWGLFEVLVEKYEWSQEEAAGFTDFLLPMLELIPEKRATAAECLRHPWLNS

Nc1ccc2c(NC3CC3)nc(-c3ccccc3)nc2c1 [1b, N^4-Cyclopropyl-2-phenyl-4,7-quinazolinediamine] showed a remaining activity at 10 µM (PKA) of 104%, a remaining activity at 10 µM (p38γ MAPK) of 105% and a remaining activity at 10 µM (NEK6) of 105%. It also gave a remaining activity at 10 µM (DYRK2) of 88%, a remaining activity at 10 µM (ERK1) of 99% and a remaining activity at 10 µM (MLK3) of 98%. It also gave a remaining activity at 10 µM (PAK6) of 92%, a remaining activity at 10 µM (Src) of 107% and a remaining activity at 10 µM (CAMK1) of 86%. For the same compound, the remaining activity at 10 µM (PKBα) was 109%, the remaining activity at 10 µM (CHK2) was 78% and the remaining activity at 10 µM (PKCα) was 96%. For the same compound, the remaining activity at 10 µM (JNK2) was 101%, the remaining activity at 10 µM (SmMLCK) was 83% and the remaining activity at 10 µM (DYRK1A) was 95%. The remaining activity at 10 µM (IKKε) was 89%, the remaining activity at 10 µM (p38δ MAPK) was 81% and the remaining activity at 10 µM (DYRK3) was 97%. The remaining activity at 10 µM (LKB1) was 98%, the remaining activity at 10 µM (CSK) was 104% and the remaining activity at 10 µM (PIM1) was 82%. For the same compound, the remaining activity at 10 µM (p38β MAPK) was 89%, the remaining activity at 10 µM (PIM2) was 76% and the remaining activity at 10 µM (TTK) was 92%. It also gave a remaining activity at 10 µM (CK1) of 86%, a remaining activity at 10 µM (TBK1) of 79% and a remaining activity at 10 µM (SRPK1) of 83%.
